# Laboratory results reported in patent EP4711366A1, “PYRIMIDO MACROHETEROCYCLIC COMPOUND AS WEE1-YES DUAL-TARGET INHIBITOR AND USE THEREOF” (Mindrank AI Ltd., priority 2023, dated 2024).
# Test system: not listed separately
# Assay: Equilibrium solubility study of polymorphs in different vehicles
# Format: physicochemical
# Conditions: FaSSGF, 37±2 °C, 24 h, suspension ~10 mg/mL; 1440 min; in mg/mL (unit assumed)
# Description: The equilibrium solubility of the crystal forms A, B, C, and D of compound (IE) was tested in water (H2O), fasted state simulated gastric fluid (FaSSGF), fasted state simulated intestinal fluid (FaSSIF), and fed state simulated intestinal fluid (FeSSIF). In the test, the solids were suspended in corresponding buffers to formulate suspensions (~10 mg/mL) and mixed at 37±2 °C. After 24 h, samples of the suspensions were taken. The supernatant was filtered, and the concentration was determined.
row,Equilibrium solubility,Compound
1,>10,Cc1cc(Nc2ncc3c(=O)n4n(c3n2)-c2cccc(n2)[C@](C)(O)CC/C=C\C4)ccc1OC1CCN(C)CC1 [Crystal form A of compound IE]
2,>10,Cc1cc(Nc2ncc3c(=O)n4n(c3n2)-c2cccc(n2)[C@](C)(O)CC/C=C\C4)ccc1OC1CCN(C)CC1 [Crystal form B of compound IE]
3,>10,Cc1cc(Nc2ncc3c(=O)n4n(c3n2)-c2cccc(n2)[C@](C)(O)CC/C=C\C4)ccc1OC1CCN(C)CC1 [Crystal form C of compound IE]

# Same assay, conditions: FaSSIF, 37±2 °C, 24 h, suspension ~10 mg/mL; 1440 min; in mg/mL (unit assumed)
row,Compound,Equilibrium solubility
1,Cc1cc(Nc2ncc3c(=O)n4n(c3n2)-c2cccc(n2)[C@](C)(O)CC/C=C\C4)ccc1OC1CCN(C)CC1 [Crystal form A of compound IE],1.73
2,Cc1cc(Nc2ncc3c(=O)n4n(c3n2)-c2cccc(n2)[C@](C)(O)CC/C=C\C4)ccc1OC1CCN(C)CC1 [Crystal form B of compound IE],1.23

# The next lines start with the values.
row,Equilibrium solubility,Compound
1,0.710,Cc1cc(Nc2ncc3c(=O)n4n(c3n2)-c2cccc(n2)[C@](C)(O)CC/C=C\C4)ccc1OC1CCN(C)CC1 [Crystal form C of compound IE]
2,0.81,Cc1cc(Nc2ncc3c(=O)n4n(c3n2)-c2cccc(n2)[C@](C)(O)CC/C=C\C4)ccc1OC1CCN(C)CC1 [Crystal form D of compound IE]

# Same assay, conditions: FeSSIF, 37±2 °C, 24 h, suspension ~10 mg/mL; 1440 min; in mg/mL (unit assumed)
row,Compound,Equilibrium solubility
1,Cc1cc(Nc2ncc3c(=O)n4n(c3n2)-c2cccc(n2)[C@](C)(O)CC/C=C\C4)ccc1OC1CCN(C)CC1 [Crystal form A of compound IE],0.27
2,Cc1cc(Nc2ncc3c(=O)n4n(c3n2)-c2cccc(n2)[C@](C)(O)CC/C=C\C4)ccc1OC1CCN(C)CC1 [Crystal form B of compound IE],2.07

# Further lines, results first:
row,Equilibrium solubility,Compound
1,1.299,Cc1cc(Nc2ncc3c(=O)n4n(c3n2)-c2cccc(n2)[C@](C)(O)CC/C=C\C4)ccc1OC1CCN(C)CC1 [Crystal form C of compound IE]
2,0.11,Cc1cc(Nc2ncc3c(=O)n4n(c3n2)-c2cccc(n2)[C@](C)(O)CC/C=C\C4)ccc1OC1CCN(C)CC1 [Crystal form D of compound IE]

# Same assay, conditions: fassgf, 37±2 °C, suspension ~10 mg/mL
row,solubility thermodynamic at 24 h,Compound
1,8440 µg/mL,Cc1cc(Nc2ncc3c(=O)n4n(c3n2)-c2cccc(n2)[C@](C)(O)CC/C=C\C4)ccc1OC1CCN(C)CC1 [Crystal form D of compound IE]

# Test system: not listed separately
# Assay: Solid-state stability study of polymorphs
# Format: physicochemical
# Conditions: 25 °C/60% RH, 7 days (long-term)
Compound,Crystal form,Purity (%)
Cc1cc(Nc2ncc3c(=O)n4n(c3n2)-c2cccc(n2)[C@](C)(O)CC/C=C\C4)ccc1OC1CCN(C)CC1 [Crystal form A of compound IE],Crystal form A,98.01%
Cc1cc(Nc2ncc3c(=O)n4n(c3n2)-c2cccc(n2)[C@](C)(O)CC/C=C\C4)ccc1OC1CCN(C)CC1 [Crystal form B of compound IE],Crystal form B,98.01%

# The remaining lines, values ahead:
Crystal form,Purity (%),Compound
Crystal form C,98.75%,Cc1cc(Nc2ncc3c(=O)n4n(c3n2)-c2cccc(n2)[C@](C)(O)CC/C=C\C4)ccc1OC1CCN(C)CC1 [Crystal form C of compound IE]
Crystal form D,97.82%,Cc1cc(Nc2ncc3c(=O)n4n(c3n2)-c2cccc(n2)[C@](C)(O)CC/C=C\C4)ccc1OC1CCN(C)CC1 [Crystal form D of compound IE]

# Same assay, conditions: 40 °C/75% RH, 7 days (accelerated)
Compound,Crystal form,Purity (%)
Cc1cc(Nc2ncc3c(=O)n4n(c3n2)-c2cccc(n2)[C@](C)(O)CC/C=C\C4)ccc1OC1CCN(C)CC1 [Crystal form A of compound IE],Crystal form E,98.11%
Cc1cc(Nc2ncc3c(=O)n4n(c3n2)-c2cccc(n2)[C@](C)(O)CC/C=C\C4)ccc1OC1CCN(C)CC1 [Crystal form B of compound IE],Crystal form B,98.25%

# Results, then the molecule that gave them:
Crystal form,Purity (%),Compound
Crystal form C,98.73%,Cc1cc(Nc2ncc3c(=O)n4n(c3n2)-c2cccc(n2)[C@](C)(O)CC/C=C\C4)ccc1OC1CCN(C)CC1 [Crystal form C of compound IE]
Crystal form D,97.87%,Cc1cc(Nc2ncc3c(=O)n4n(c3n2)-c2cccc(n2)[C@](C)(O)CC/C=C\C4)ccc1OC1CCN(C)CC1 [Crystal form D of compound IE]

# Same assay, conditions: 60 °C, 7 days (high-temperature, RH < 30%)
Compound,Crystal form,Purity (%)
Cc1cc(Nc2ncc3c(=O)n4n(c3n2)-c2cccc(n2)[C@](C)(O)CC/C=C\C4)ccc1OC1CCN(C)CC1 [Crystal form A of compound IE],Crystal forms A+E,98.06%
Cc1cc(Nc2ncc3c(=O)n4n(c3n2)-c2cccc(n2)[C@](C)(O)CC/C=C\C4)ccc1OC1CCN(C)CC1 [Crystal form B of compound IE],Crystal form B,98.24%

# The next lines start with the values.
Crystal form,Purity (%),Compound
Crystal form C,98.72%,Cc1cc(Nc2ncc3c(=O)n4n(c3n2)-c2cccc(n2)[C@](C)(O)CC/C=C\C4)ccc1OC1CCN(C)CC1 [Crystal form C of compound IE]
Crystal form D,97.74%,Cc1cc(Nc2ncc3c(=O)n4n(c3n2)-c2cccc(n2)[C@](C)(O)CC/C=C\C4)ccc1OC1CCN(C)CC1 [Crystal form D of compound IE]

# Same assay, conditions: HPLC purity before storage
row,Compound,Initial purity (%)
1,Cc1cc(Nc2ncc3c(=O)n4n(c3n2)-c2cccc(n2)[C@](C)(O)CC/C=C\C4)ccc1OC1CCN(C)CC1 [Crystal form A of compound IE],98.08%
2,Cc1cc(Nc2ncc3c(=O)n4n(c3n2)-c2cccc(n2)[C@](C)(O)CC/C=C\C4)ccc1OC1CCN(C)CC1 [Crystal form B of compound IE],97.97%

# The next lines start with the values.
row,Initial purity (%),Compound
1,98.74%,Cc1cc(Nc2ncc3c(=O)n4n(c3n2)-c2cccc(n2)[C@](C)(O)CC/C=C\C4)ccc1OC1CCN(C)CC1 [Crystal form C of compound IE]
2,97.79%,Cc1cc(Nc2ncc3c(=O)n4n(c3n2)-c2cccc(n2)[C@](C)(O)CC/C=C\C4)ccc1OC1CCN(C)CC1 [Crystal form D of compound IE]

# Same assay, conditions: high-temperature and accelerated conditions for 7 days
row,solid-state stability (in words),Compound
1,remained stable,Cc1cc(Nc2ncc3c(=O)n4n(c3n2)-c2cccc(n2)[C@](C)(O)CC/C=C\C4)ccc1OC1CCN(C)CC1 [Crystal form B of compound IE]
2,remained stable,Cc1cc(Nc2ncc3c(=O)n4n(c3n2)-c2cccc(n2)[C@](C)(O)CC/C=C\C4)ccc1OC1CCN(C)CC1 [Crystal form C of compound IE]
3,remained stable,Cc1cc(Nc2ncc3c(=O)n4n(c3n2)-c2cccc(n2)[C@](C)(O)CC/C=C\C4)ccc1OC1CCN(C)CC1 [Crystal form D of compound IE]

# Same assay, conditions: long-term conditions for 7 days
row,Compound,solid-state stability (in words)
1,Cc1cc(Nc2ncc3c(=O)n4n(c3n2)-c2cccc(n2)[C@](C)(O)CC/C=C\C4)ccc1OC1CCN(C)CC1 [Crystal form A of compound IE],remained stable
2,Cc1cc(Nc2ncc3c(=O)n4n(c3n2)-c2cccc(n2)[C@](C)(O)CC/C=C\C4)ccc1OC1CCN(C)CC1 [Crystal form B of compound IE],remained stable

# Results, then the molecule that gave them:
row,solid-state stability (in words),Compound
1,remained stable,Cc1cc(Nc2ncc3c(=O)n4n(c3n2)-c2cccc(n2)[C@](C)(O)CC/C=C\C4)ccc1OC1CCN(C)CC1 [Crystal form C of compound IE]
2,remained stable,Cc1cc(Nc2ncc3c(=O)n4n(c3n2)-c2cccc(n2)[C@](C)(O)CC/C=C\C4)ccc1OC1CCN(C)CC1 [Crystal form D of compound IE]

# Test system: Human ovarian cancer OVCAR-3 cells
# Assay: In vivo efficacy study against OVCAR-3 tumors (subcutaneous tumor-bearing model)
# Parameters: species or system BALB/c nude mice
# Conditions: 80mg/kg, PO, QD×28
# Description: Human ovarian cancer OVCAR-3 cells were subcultured and expanded in an RPMI-1640 culture medium containing 20% FBS and 0.01 mg/mL bovine insulin. BALB/c nude mice aged 6-8 weeks were taken and each subcutaneously injected with 5 × 10^6 cells to establish a tumor-bearing model. The tumor volume was monitored, and when the tumor volume reached about 150 mm^3, the animals were randomized into 5 groups according to body weight and tumor volume. The animals were given, by oral gavage, the vehicle or compounds to be tested (ZN-c3 and IE) once daily for a total of 28 days. During the period of administration, the tumor volume and the animal body weight were measured twice a week, and the animals' states were observed daily. At the endpoint, the animals were euthanized with carbon dioxide, and the subcutaneous tumors were isolated and weighed.
# The data calculation formulae are shown below: The tumor volume (TV) was calculated using the formula 1/2×axb^2, where a and b represent the length and width measurements of the tumor, respectively.
# The tumor growth inhibition rate (%TGITV) was calculated using the formula (1 - TVT/TVC) × 100%, where TVc represents the average tumor volume of the negative control group, and TVT represents the average tumor volume of the treatment group.
# The relative tumor volume (RTV) was calculated using the formula Vt/V0, where V0 represents the tumor volume at the time of grouping, and Vt represents the tumor volume at each measurement.
Compound,Relative tumor inhibition (%) Day 28,Relative tumor volume Day 28
"C=CCn1c(=O)c2cnc(Nc3ccc(N4CCN(C)CC4)cc3)nc2n1-c1cccc(C(C)(C)O)n1 [AZD-1775, reference compound]",58.28%,2.18
